The record followed here is ChEMBL document CHEMBL4177553, “Rapid screening the potential mechanism-based inhibitors of CYP3A4 from Tripterygium wilfordi based on computer approaches combined with in vitro bioassay” (Bioorg Med Chem, 2017).

Data set [1] deals with T1, Cytochrome P450 3A4 (Homo sapiens, UniProt P08684). Briefly: Drug metabolism in human liver microsomes assessed as CYP3A4-mediated metabolite formation at […] preincubated for 5 mins followed by NADPH addition measured after 2 hrs by UPLC-MS/MS analysis. The format is ADME. In general terms: Microsomes from liver hold many membrane-bound enzymes, among them those of drug oxidation.

In a further data set the target is Cytochrome P450 2D6 (Homo sapiens, UniProt P10635). As to the kind of experiment: Inhibition of CYP2D6 in human liver microsomes assessed as reduction in formation of dextromethorphan to dextrorphan at 50 uM preincubated for 30 mins followed by substrate addition measured after 15 mins in presence of NADPH by UPLC-MS analysis. The note with it: 0.25 h. The format is ADME.

The next data set has as its target Cytochrome P450 2E1 (Homo sapiens, UniProt P05181). As to the kind of experiment: Inhibition of CYP2E1 in human liver microsomes assessed as reduction in formation of chlorzoxazone to 6-Hydroxy chlorzoxazone at 50 uM preincubated for 30 mins followed by substrate addition measured after 15 mins in presence of NADPH by UPLC-MS analysis. The format is ADME. The note with it: 0.25 h.

Another data set has as its target Cytochrome P450 2C9 (Homo sapiens, UniProt P11712). Briefly: Inhibition of CYP2C9 in human liver microsomes assessed as reduction in formation of tolbutamide to 4-Hydroxytolbutamide at 50 uM preincubated for 30 mins followed by substrate addition measured after 15 mins in presence of NADPH by UPLC-MS analysis. The format is ADME. The note with it: 0.25 h.
In data set [2] the target is T1, Cytochrome P450 3A4. Briefly: Inhibition of CYP3A4 in human liver microsomes assessed as reduction in formation of midazolam to 1-Hydroxy midazolam at 50 uM preincubated for 30 mins followed by substrate addition measured after 15 mins in presence of NADPH by UPLC-MS analysis. The format is ADME. The note with it: 0.25 h.
Data set [3] deals with T1, Cytochrome P450 3A4. Briefly: Inhibition of CYP3A4 in human liver microsomes assessed as reduction in formation of midazolam to 1-Hydroxy midazolam at 50 uM preincubated for 30 mins followed by substrate addition measured after 15 mins in presence of varying levels of NADPH by UPLC-MS analysis. The format is ADME. The note with it: 0.25 h.
For another data set, the target named is T2, Cytochrome P450 1A2 (Homo sapiens, UniProt P05177).
T2 sequence (P05177 whole entry): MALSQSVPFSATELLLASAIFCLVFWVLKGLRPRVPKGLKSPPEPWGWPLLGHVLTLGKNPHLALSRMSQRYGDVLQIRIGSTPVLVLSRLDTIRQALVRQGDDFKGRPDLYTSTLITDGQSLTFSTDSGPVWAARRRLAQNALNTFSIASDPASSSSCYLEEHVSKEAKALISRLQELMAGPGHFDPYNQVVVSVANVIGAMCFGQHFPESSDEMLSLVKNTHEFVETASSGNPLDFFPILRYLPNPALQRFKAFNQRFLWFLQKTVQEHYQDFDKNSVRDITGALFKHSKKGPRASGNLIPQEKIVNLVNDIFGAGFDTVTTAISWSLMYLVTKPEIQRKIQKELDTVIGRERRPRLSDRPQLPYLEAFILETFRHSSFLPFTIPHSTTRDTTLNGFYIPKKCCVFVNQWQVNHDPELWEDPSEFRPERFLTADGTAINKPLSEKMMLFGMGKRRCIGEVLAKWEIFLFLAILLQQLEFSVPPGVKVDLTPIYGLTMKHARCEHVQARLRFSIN
Briefly: Inhibition of CYP1A2 in human liver microsomes assessed as reduction in formation of phenacetin to acetaminophen at 50 uM preincubated for 30 mins followed by substrate addition measured after 15 mins in presence of NADPH by UPLC-MS analysis. The note with it: 0.25 h. The format is ADME.

For another data set, the target named is Cytochrome P450 2C19 (Homo sapiens, UniProt P33261). As to the kind of experiment: Inhibition of CYP2C19 in human liver microsomes assessed as reduction in formation of mephenytoin to 4-Hydroxy mephenytoin at 50 uM preincubated for 30 mins followed by substrate addition measured after 15 mins in presence of NADPH by UPLC-MS analysis. The format is ADME. The note with it: 0.25 h.

Data set [4] can be described thus: Retention time of the compound in human liver microsomes by UPLC-MS/MS analysis. The format is ADME, microsome.
Data set [5] has as its target T1, Cytochrome P450 3A4. As to the kind of experiment: Inhibition of CYP3A4 in human liver microsomes assessed as reduction in formation of midazolam to 1-Hydroxy midazolam preincubated for 30 mins followed by substrate addition measured after 15 mins in presence of NADPH by UPLC-MS analysis. The format is ADME. The note with it: 0.25 h.
Data set [6] is described as follows: Drug metabolism in human liver microsomes assessed as monohydroxy formation in presence of GSH and water by UPLC-MS/MS analysis. The format is ADME, microsome.
The target of data set [7] is T1, Cytochrome P450 3A4. As to the kind of experiment: Drug metabolism in human liver microsomes assessed as CYP3A4-mediated M2 metabolite formation at […] preincubated for 5 mins followed by NADPH addition measured after 2 hrs by UPLC-MS/MS analysis. The format is ADME.
Data set [8] concerns the target T1, Cytochrome P450 3A4. As to the kind of experiment: Drug metabolism in human liver microsomes assessed as CYP3A4-mediated M1 metabolite formation at […] preincubated for 5 mins followed by NADPH addition measured after 2 hrs by UPLC-MS/MS analysis. The format is ADME.

Sequence of Cytochrome P450 2C19 (P33261 whole entry): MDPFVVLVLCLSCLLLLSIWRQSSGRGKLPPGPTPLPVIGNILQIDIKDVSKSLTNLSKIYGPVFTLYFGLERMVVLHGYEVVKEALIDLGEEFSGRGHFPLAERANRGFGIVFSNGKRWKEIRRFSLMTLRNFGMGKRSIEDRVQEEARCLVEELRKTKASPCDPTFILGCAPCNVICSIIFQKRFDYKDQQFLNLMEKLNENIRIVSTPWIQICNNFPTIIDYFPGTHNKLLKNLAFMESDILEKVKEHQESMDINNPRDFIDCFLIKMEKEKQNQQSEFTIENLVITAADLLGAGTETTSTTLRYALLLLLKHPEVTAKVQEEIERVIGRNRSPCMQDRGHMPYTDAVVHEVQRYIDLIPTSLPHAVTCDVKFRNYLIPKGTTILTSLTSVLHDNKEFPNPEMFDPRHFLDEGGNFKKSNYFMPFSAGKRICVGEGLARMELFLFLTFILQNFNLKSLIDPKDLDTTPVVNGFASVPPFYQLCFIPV
Sequence of Cytochrome P450 2C9 (P11712 whole entry): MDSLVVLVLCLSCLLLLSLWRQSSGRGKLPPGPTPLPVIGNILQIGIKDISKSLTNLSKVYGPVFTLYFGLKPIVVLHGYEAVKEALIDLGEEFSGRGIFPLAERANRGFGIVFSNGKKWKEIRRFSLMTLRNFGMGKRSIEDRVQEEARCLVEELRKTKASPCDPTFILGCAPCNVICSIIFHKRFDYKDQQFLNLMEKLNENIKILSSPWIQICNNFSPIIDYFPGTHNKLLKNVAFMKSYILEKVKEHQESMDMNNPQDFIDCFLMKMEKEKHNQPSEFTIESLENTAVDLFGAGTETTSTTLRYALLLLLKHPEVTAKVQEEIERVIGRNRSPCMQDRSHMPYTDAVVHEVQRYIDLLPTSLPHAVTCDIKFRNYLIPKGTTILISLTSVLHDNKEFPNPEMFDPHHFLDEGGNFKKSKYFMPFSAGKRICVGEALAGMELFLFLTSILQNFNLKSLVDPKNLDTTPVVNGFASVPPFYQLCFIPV
T1 sequence (P08684 whole entry): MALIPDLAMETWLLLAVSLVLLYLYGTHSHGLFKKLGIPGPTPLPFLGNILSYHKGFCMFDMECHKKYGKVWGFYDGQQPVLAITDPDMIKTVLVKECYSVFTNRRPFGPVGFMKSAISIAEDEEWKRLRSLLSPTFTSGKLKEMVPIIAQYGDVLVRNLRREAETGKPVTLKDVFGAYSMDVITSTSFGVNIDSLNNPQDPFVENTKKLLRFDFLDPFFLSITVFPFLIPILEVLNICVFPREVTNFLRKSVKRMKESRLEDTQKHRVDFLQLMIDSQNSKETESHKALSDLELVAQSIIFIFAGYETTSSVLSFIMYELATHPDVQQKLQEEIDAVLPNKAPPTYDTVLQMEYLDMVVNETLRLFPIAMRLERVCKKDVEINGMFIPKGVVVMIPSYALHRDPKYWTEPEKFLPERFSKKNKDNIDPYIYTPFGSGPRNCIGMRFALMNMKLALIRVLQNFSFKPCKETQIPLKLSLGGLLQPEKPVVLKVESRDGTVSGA
Sequence of Cytochrome P450 2D6 (P10635 whole entry): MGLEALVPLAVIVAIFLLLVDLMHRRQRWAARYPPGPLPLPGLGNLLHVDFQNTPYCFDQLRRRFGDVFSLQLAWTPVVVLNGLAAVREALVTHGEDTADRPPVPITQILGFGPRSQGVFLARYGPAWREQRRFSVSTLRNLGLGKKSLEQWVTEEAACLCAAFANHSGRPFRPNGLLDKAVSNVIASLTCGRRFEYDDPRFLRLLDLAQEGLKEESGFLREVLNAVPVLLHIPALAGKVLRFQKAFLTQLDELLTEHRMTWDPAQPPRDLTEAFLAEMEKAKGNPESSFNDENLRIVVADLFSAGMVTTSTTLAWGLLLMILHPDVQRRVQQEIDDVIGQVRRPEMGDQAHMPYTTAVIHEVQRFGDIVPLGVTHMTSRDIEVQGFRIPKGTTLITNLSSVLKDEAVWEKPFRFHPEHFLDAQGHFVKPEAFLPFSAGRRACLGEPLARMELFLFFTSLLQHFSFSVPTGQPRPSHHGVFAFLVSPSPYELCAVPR
Sequence of Cytochrome P450 2E1 (P05181 whole entry): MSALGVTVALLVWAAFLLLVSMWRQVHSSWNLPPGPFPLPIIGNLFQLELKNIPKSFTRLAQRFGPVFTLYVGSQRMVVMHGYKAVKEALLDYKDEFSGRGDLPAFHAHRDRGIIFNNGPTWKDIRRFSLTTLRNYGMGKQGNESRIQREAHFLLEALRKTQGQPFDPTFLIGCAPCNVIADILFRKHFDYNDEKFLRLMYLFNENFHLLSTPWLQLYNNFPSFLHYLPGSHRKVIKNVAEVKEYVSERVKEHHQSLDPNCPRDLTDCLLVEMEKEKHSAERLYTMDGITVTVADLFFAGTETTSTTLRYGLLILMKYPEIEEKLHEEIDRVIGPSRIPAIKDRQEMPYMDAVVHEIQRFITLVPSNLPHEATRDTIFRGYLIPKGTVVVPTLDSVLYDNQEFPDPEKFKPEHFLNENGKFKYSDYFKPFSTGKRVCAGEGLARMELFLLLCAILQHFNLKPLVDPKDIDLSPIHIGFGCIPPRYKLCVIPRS

Take `CC(=O)OC[C@@]12[C@H](OC(C)=O)[C@H](OC(C)=O)[C@@H]3[C@@H](OC(C)=O)[C@@]14O[C@@]3(C)COC(=O)c1cccnc1[C@@H](C)[C@H](C)C(=O)O[C@@H]([C@H](OC(C)=O)[C@@H]2OC(C)=O)[C@]4(C)O`: the Drug metabolism result at Cytochrome P450 3A4 [1] is given as “Metabolite_Notdetected”. Besides, the “inhibition (INH)” value was “Not Active” on Cytochrome P450 2D6; “Not Active” at Cytochrome P450 2E1; “Not Active” on Cytochrome P450 2C9; “Active” at Cytochrome P450 3A4 [2]; “Not Active” on Cytochrome P450 3A4 [3]; “Not Active” at Cytochrome P450 1A2. Besides, at Cytochrome P450 2C19, the “inhibition (INH)” value is “Not Active”.

`CC(=O)OC[C@]12[C@H](OC(C)=O)[C@H](OC(C)=O)[C@@H]3[C@@H](OC(C)=O)[C@@]14O[C@@]3(C)COC(=O)c1cccnc1CC[C@@](C)(O)C(=O)O[C@@H]([C@H](OC(=O)c1ccoc1)[C@@H]2OC(C)=O)[C@]4(C)O` returned a Retention_time in [4] of 10.55 min. Besides, the “inhibition (INH)” value at Cytochrome P450 3A4 [5] is “Dose-dependent effect”; at Cytochrome P450 2D6 it was “Not Active”; on Cytochrome P450 2E1 it was “Not Active”; at Cytochrome P450 2C9, “Not Active”; on Cytochrome P450 3A4 [2], “Active”; at Cytochrome P450 3A4 [3], “Active”. The “inhibition (INH)” value at Cytochrome P450 1A2 and on Cytochrome P450 2C19 was “Not Active” throughout. The Drug metabolism result (in data set [6]; on Cytochrome P450 3A4 [7]; on Cytochrome P450 3A4 [8]) was “Metabolite_Detected” in each case.

Turning to `CC(=O)OC[C@]12[C@H](OC(C)=O)[C@H](OC(C)=O)[C@@H]3[C@@H](OC(C)=O)[C@@]14O[C@@]3(C)COC(=O)c1cccnc1CC[C@@](C)(O)C(=O)O[C@@H]([C@H](OC(=O)c1ccccc1)[C@@H]2OC(C)=O)[C@]4(C)O`, the “inhibition (INH)” value on Cytochrome P450 2D6, at Cytochrome P450 2E1, at Cytochrome P450 2C9, on Cytochrome P450 3A4 [2], on Cytochrome P450 1A2 and on Cytochrome P450 2C19 was “Active” throughout.

As to `CC(=O)OC[C@]12[C@H](OC(C)=O)[C@H](OC(C)=O)[C@@H]3[C@@H](OC(C)=O)[C@@]14O[C@@]3(C)COC(=O)c1cccnc1CC[C@H](C)C(=O)O[C@@H]([C@H](OC(=O)c1ccccc1)[C@@H]2OC(C)=O)[C@]4(C)O`, the “inhibition (INH)” value on Cytochrome P450 2D6, at Cytochrome P450 2E1, at Cytochrome P450 2C9, at Cytochrome P450 3A4 [2], on Cytochrome P450 1A2 and at Cytochrome P450 2C19 was “Active” throughout.

Regarding `CC(=O)OC[C@]12[C@H](OC(C)=O)[C@H](OC(C)=O)[C@@H]3[C@@H](OC(C)=O)[C@@]14O[C@@]3(C)COC(=O)c1cccnc1CCC(C)C(=O)O[C@@H]([C@H](OC(=O)c1ccoc1)[C@@H]2OC(C)=O)[C@]4(C)O` (stereo not given in full), the Drug metabolism entry on Cytochrome P450 3A4 [1] was “Metabolite_Notdetected”. The “inhibition (INH)” value on Cytochrome P450 2D6 is “Not Active”; at Cytochrome P450 2E1, “Not Active”; at Cytochrome P450 2C9, “Not Active”; on Cytochrome P450 3A4 [2] it was “Active”; on Cytochrome P450 3A4 [3], “Not Active”; at Cytochrome P450 1A2, “Not Active”. Moreover, on Cytochrome P450 2C19, the “inhibition (INH)” value is given as “Not Active”.
